Results on one substance are retold here after paper PMC8830681, “Circadian control of heparan sulfate levels times phagocytosis of amyloid beta aggregates” (PLoS Genetics, 2022).

For series [1] the following is noted: as a free peptide and when bound to HSPGs; cited from earlier work. The text has this: In addition to binding Aβ42, HSPGs regulate the formation of Aβ42 plaques, with highly-sulfated HSPGs accumulating in the plaques. Aβ peptides exist in two forms (Aβ40 or Aβ42) based on the cleavage of the amyloid precursor protein (APP) by β- and γ-secretase. Previous studies show differential phagocytosis of Aβ42 and Aβ40, yet the key amino acids essential to binding are present in Aβ40 (Fig 6C) (13–16, HHQK). However, the anionic bridge between lysine 28 and […], which is broken by HSPGs to allow the formation of Aβ42 aggregates by rapidl ...

Series [2] relates to bone-marrow derived macrophages (BMDMs) from Per2::Luc C57BL/6J mice. Description: Phagocytosis assay of HiLyte 488 labeled amyloid-beta by serum-shock synchronized macrophages (with or without heparinases). It is filed as cell-based, mouse. The following applies: ECHO v4.1 fit, average of 3 replicates, log10 mean cell fluorescence, 2 h uptake every 4 h PS16-PS40, WT Per2::Luc BMDMs. The text has this: To do so, we modified a previously-employed BMDM phagocytosis assay (as BMDMs are both models for activated microglia and are known to migrate into the brain in late-stage AD), to use fluorescently labeled Aβ42 to determine if the phagocytosis of Aβ42 is controlled by the circadian clock. In brief, BMDMs were derived from bone marrow progenitor cells extracted from Per2::Luc C57BL/6J mice and differentiated with recombinant Macrophage Colony Stimulating Factor (M-CSF), with flow cytometry confirming complete differentiation into naïve peripheral macrophages. […] 16 h after synchronization, confluent dishes of these BMDMs were treated HiLyte 488 labeled Aβ42 (Anaspec), in triplicate, every 4 h over a 24 h circadian period. BMDMs treated with labeled Aβ42 were harvested two hours after Aβ42 treatment and fixed with formalin. Total cellular fluorescence levels were analyzed with fluorescent confocal microscopy and quantified using a custom cell measurement MATLAB script (Fig 1A, S2 Fig, and S1 Table).
Bone marrow was harvested from the femurs and tibias of one 3–6-month-old male mouse using a 26 g needle and syringe filled with DMEM supplemented media. ACK lysing buffer (Lonza 10-548E) was used to lyse red blood cells in order to prevent erythrocyte contamination. Filtered bone marrow cells were counted using a BioRad TC20 automated cell counter and plated on 35 mm cell culture plates at a density of 1 x 10^6 in macrophage differentiation media. After three days of incubation at 37°C with 5% CO2, fresh macrophage differentiation media was added. After another 3 days of incubation, the cells were washed with 2 ml warm PBS per plate, and replaced with macrophage assay media, and the cultures were incubated for 24 h. Macrophage cultures were then washed with 2 ml warm PBS, macrophage serum starvation media was added, and the plates were incubated in the starve media for 24 h. Next, macrophage serum starvation media was removed, and macrophage serum shock media was added, and cultures were incubated for 2 h. Macrophage cultures were then washed with 2 ml warmed PBS each and macrophage media Luciferin was added. Cultures were sealed with grease and glass cover slips and placed in a LumiCycle 32 luminometer (Actimetrics) to confirm synchronization of circadian rhythmicity. Assays began 16 h post serum shock to allow the synchronized cells to return to homeostasis.
All amyloid-beta isoforms were reconstituted 24 h or less before experimentation in water and PBS (1:1) and were dissolved using sonication for approximately 30 min. The reconstituted Aβ was pooled from individual vials before aliquoting for each experimental replicate. The aliquots were then flash frozen and stored at -80°C until 20 min before use.
Using synchronized macrophages (as described above) starting at PS16 macrophages were treated every 4 h for 24 h, in triplicate, with 115 μl (0.25 mg/ml) of fluorescently labeled amyloid-beta (PS16, PS20, PS24, PS28, PS32, PS36, and PS40) and heparinases at the reported activity levels (S5 Table). The treated macrophages were then incubated at 37°C for 2 h. Following the two-hour incubation, the media was aspirated, and the macrophages were washed with 2ml of PBS three times before Cell Stripper (Corning 25-056-CI) was added to the cultures, which were then incubated at 37°C for 3 min. Detached macrophages were next centrifuged at 400 g for 5 min, the supernatant was aspirated, and the macrophage cell pellets were resuspended in formalin and incubated in the dark at room temperature for 30 min. Macrophages were then centrifuged for 5 min at 400 g, the supernatant was aspirated, and the macrophages were resuspended in 250 μL of PBS and kept at 4°C. The fixed macrophages were imaged using fluorescent microscopy within a week of the experiment. All fluorescent images from the phagocytosis experiments are available on Mendeley Data (doi: 10.17632/zrmgjyggmr.1). […]

Series [3] relates to BMDMs from PER1^-/-/PER2^-/- knockout (KO) mice. In words: Phagocytosis assay of HiLyte 488 labeled Aβ42 in clock knockout macrophages. The format is cell-based, mouse. The procedure: (Fig 1B and 1C, S1 Fig). The extended harmonic circadian oscillator model (ECHO version 4.1) was used to analyze the average of the three replicates from each timepoint and predicted that Aβ42 total cellular florescence, and therefore the phagocytosis of Aβ42, oscillated with a circadian period (~26 h, ECHO p-value = 1.61 x 10^−6). Additionally, when compared with PER2 levels extrapolated based on the lumicycle data of the macrophages sampled, we saw that total cellular fluorescence was highest after the zenith of PER2 levels (Fig 1B and 1C). The Aβ42 phagocytosis experiment was then repeated using PER1^-/-/PER2^-/- knockout (KO) mice to confirm the circadian influence of this relationship. BMDMs from the knockout mice were extracted, derived into naïve macrophages, and synchronized as described above. KO macrophages were treated with fluorescently labeled Aβ42 for 2 h, in triplicate, every 4 h for 24 h starting at PS16.
PER2::LUC C57BL/6J male mice 3–6 months of age bred from Jackson Labs stock strains (Accession # 006852) were used for all WT experiments and were euthanized using CO2 gas and cervical dislocation. […]
Average cellular pixel intensities were used as a proxy for of Aβ phagocytosis. At least 100 cells measured per time point were analyzed using the above-described software. […]

Consider “Amyloid-beta 42 labeled with HiLyte 488 [Aβ42]”, for which, in series [1], the “aggregation kinetics compared with Aβ40 (in words)” value was “higher aggregation kinetics”. Moreover, the “Oscillation Type” value is on record as “Forced” in series [2] and “Damped” in series [3] (ECHO v4.1 fit, average of 3 replicates, log10 mean cell fluorescence, 2 h uptake every 4 h from PS16, PER1-/-/PER2-/- KO BMDMs). The “oscillation of Aβ42 phagocytosis in knockout macrophages (in words)” value in series [3] (2 h treatment, in triplicate, every 4 h for 24 h starting at PS16, total cellular fluorescence) is given as “ablation of the zenith of fluorescence at PS32”.
